Source: patent publication US11672799B2, “1,4-disubstituted pyridazine quinolne analogs there of and methods for treating SMN-deficiency-related conditions” (Novartis AG, priority 2013, dated 2023)
Read-outs that look alike come from different tables or passages of the source.

Test system: SMN protein
Test: cellular SMN ELISA (SMN protein elevation) in myoblast cell line from SMNdelta7 mouse model
Assay type: cell-based
Method: A cellular SMN ELISA was used to measure the effects of low molecular weight compounds on SMN protein elevation. Cells from a myoblast cell line derived from the SMNdelta7 mouse model (kind gift from Steve Burden, NYU) were seeded into a 384-well plate at a density of 3000 cells/well and treated with compounds for 24 hours. ELISA capture plates were prepared by coating 384-well plates (Immulon 4HBX) with 0.5 ug/mL of anti-SMN mAb (BD Science, Catalog number 610647) at 4° C. overnight. The plates were washed 5 times with 110 uL of PBS-Tween (0.05% Tween-20, PBST), blocked with 100 uL of 1% BSA in PBST for 2 hours and washed (5 times) with 100 uL of PBST. After 24 hours of compound treatment cells were lysed in a modified RIPA-buffer, on ice for 1 hour. 20 uL of lysate and 20 uL of 1% BSA were then added to the ELISA capture plates and incubated at 4° C. overnight. Plates were washed (5 times) with PBST and then incubated with 1:100 dilution of primary rabbit anti-SMN polyclonal antibody (Santa cruz, Catalog number SC-15320) at room temperature for 1 hour and subsequently washed (5 times) with 110 uL of PBST. This was followed by addition of 1:100 Goat anti-Rabbit IgG-HRP linked (Cell Signaling, Catalog number 7074) secondary antibody for 1 hour. Plates were then washed with PBST and incubated with 40 uL TMB substrate (Cell Signaling, Catalog number 7004 L) at room temperature for 1-10 minutes with shaking. The reaction was stopped by addition of 40 uL of stop solution (Cell signaling, Catalog number 7002 L) and absorption was measured at 450 nm. Data was reported as fold activation over DMSO control, and EC50.
ELISA assay condition 1: compound concentration range 20 nM-10 uM; ELISA assay condition 2: compound concentration 100 pM-10 uM. Data generated in Biological Example 1 using ELISA conditions 1 or 2.

[1] = Biological Example 1, SMN ELISA, SMNdelta7 mouse myoblasts, 24 hours compound treatment
[2] = Biological Example 1, SMN ELISA, SMNdelta7 mouse myoblasts, 24 hours compound treatment, read-out: SMN Activity (EC50)
[3] = comparison of unsubstituted, ortho-hydroxy and ortho-alkoxy pyridazines, as in Biological Example 1
[4] = comparison of unsubstituted, ortho-hydroxy and ortho-alkoxy pyridazines, as in Biological Example 1, read-out: SMN ELISA EC50

Compound	SMN Activity (fold activation over DMSO control) [1]	EC50 [2]	Fold activation [3]	EC50 [4]
CN(c1ccc(-c2cc3cccnc3cc2O)nn1)C1CC(C)(C)NC(C)(C)C1 [Example 1-1, 6-(6-(Methyl(2,2,6,6-tetramethylpiperidin-4-yl)amino)pyridazin-3-yl)quinolin-7-ol]	2.9 fold	20 nM	2.9	20 nM
CN(c1ccc(-c2cc3cccnc3cc2O)nn1)C1CC(C)(C)N(C)C(C)(C)C1 [Example 1-2, 6-(6-(methyl(1,2,2,6,6-pentamethylpiperidin-4-yl)amino)pyridazin-3-yl)quinolin-7-ol]	2.4 fold	340 nM		
CN1C[C@@H]2CN(c3ccc(-c4cc5cccnc5cc4O)nn3)C[C@@H]2C1 [Example 1-3, 6-(6-((3aR,6aS)-5-methylhexahydropyrrolo[3,4-c]pyrrol-2(1H)-yl)pyridazin-3-yl)quinolin-7-ol]	2.5 fold	255 nM		
Cc1ccc2cc(-c3ccc(N(C)C4CC(C)(C)NC(C)(C)C4)nn3)c(O)cc2n1 [Example 2-1, 2-methyl-6-(6-(methyl(2,2,6,6-tetramethylpiperidin-4-yl)amino)pyridazin-3-yl)quinolin-7-ol]	3.0 fold	20 nM		
CN(c1ccc(-c2cc3cnccc3cc2O)nn1)C1CC(C)(C)N(C)C(C)(C)C1 [Example 3-1, 7-(6-(methyl(1,2,2,6,6-pentamethylpiperidin-4-yl)amino)pyridazin-3-yl)isoquinolin-6-ol]	3.1 fold	70 nM		
CN(c1ccc(-c2cc3cnccc3cc2O)nn1)C1CC(C)(C)NC(C)(C)C1 [Example 3-2, 7-(6-(methyl(2,2,6,6-tetramethylpiperidin-4-yl)amino)pyridazin-3-yl)isoquinolin-6-ol]	2.75 fold	5 nM	2.8	5 nM
CC1(C)CC(Oc2ccc(-c3cc4cnccc4cc3O)nn2)CC(C)(C)N1 [Example 3-3, 7-(6-((2,2,6,6-tetramethylpiperidin-4-yl)oxy)pyridazin-3-yl)isoquinolin-6-ol]	2.5 fold	83 nM		
CN1C[C@@H]2CN(c3ccc(-c4cc5cnccc5cc4O)nn3)C[C@@H]2C1 [Example 3-4, 7-(6-((3aR,6aS)-5-methylhexahydropyrrolo[3,4-c]pyrrol-2(1H)-yl)pyridazin-3-yl)isoquinolin-6-ol]	2.3 fold	60 nM		
CN(c1ccc(-c2cc3c(C4CC4)nccc3cc2O)nn1)C1CC(C)(C)NC(C)(C)C1 [Example 3-5, 1-cyclopropyl-7-(6-(methyl(2,2,6,6-tetramethylpiperidin-4-yl)amino)pyridazin-3-yl)isoquinolin-6-ol]	2.54 fold	14 nM		
CN(c1ccc(-c2cc3c(O)nccc3cc2O)nn1)C1CC(C)(C)NC(C)(C)C1 [Example 3-6, 7-(6-(methyl(2,2,6,6-tetramethylpiperidin-4-yl)amino)pyridazin-3-yl)isoquinoline-1,6-diol]	2.43 fold	8 nM		
CN(c1ccc(-c2cc3c(C#N)nccc3cc2O)nn1)C1CC(C)(C)NC(C)(C)C1 [Example 3-7, 6-hydroxy-7-(6-(methyl(2,2,6,6-tetramethylpiperidin-4-yl)amino)pyridazin-3-yl)isoquinoline-1-carbonitrile]	2.9 fold	2 nM		
CN(c1ccc(-c2cc3ccncc3cc2O)nn1)C1CC(C)(C)NC(C)(C)C1 [Example 4-1, 6-(6-(methyl(2,2,6,6-tetramethylpiperidin-4-yl)amino)pyridazin-3-yl)isoquinolin-7-ol]	2.6 fold	6 nM	2.6	6 nM
CN(c1ccc(-c2c(O)ccc3cccnc23)nn1)C1CC(C)(C)NC(C)(C)C1 [Example 5-1, 8-(6-(methyl(2,2,6,6-tetramethylpiperidin-4-yl)amino)pyridazin-3-yl)quinolin-7-ol]	2.6 fold	300 nM		
CN(c1ccc(-c2cc3ncccc3cc2O)nn1)C1CC(C)(C)NC(C)(C)C1 [Example 6-1, 7-(6-(methyl(2,2,6,6-tetramethylpiperidin-4-yl)amino)pyridazin-3-yl)quinolin-6-ol]	2.82 fold	7 nM	2.8	7 nM
Cc1ccc2cc(O)c(-c3ccc(N(C)C4CC(C)(C)NC(C)(C)C4)nn3)cc2n1 [Example 6-2, 2-methyl-7-(6-(methyl(2,2,6,6-tetramethylpiperidin-4-yl)amino)pyridazin-3-yl)quinolin-6-ol]	3.2 fold	4 nM		
CN(c1ccc(-c2cc3cc(Cl)cnc3cc2O)nn1)C1CC(C)(C)NC(C)(C)C1 [Example 7-1, 3-chloro-6-(6-(methyl(2,2,6,6-tetramethylpiperidin-4-yl)amino)pyridazin-3-yl)quinolin-7-ol]	2.8 fold	14 nM		
CN(c1ccc(-c2cc3cc(Br)cnc3cc2O)nn1)C1CC(C)(C)NC(C)(C)C1 [Example 7-2, 3-bromo-6-(6-(methyl(2,2,6,6-tetramethylpiperidin-4-yl)amino)pyridazin-3-yl)quinolin-7-ol]	2.6 fold	8 nM		
CN(c1ccc(-c2cc3cc(C#N)cnc3cc2O)nn1)C1CC(C)(C)NC(C)(C)C1 [Example 7-3, 7-hydroxy-6-(6-(methyl(2,2,6,6-tetramethylpiperidin-4-yl)amino)pyridazin-3-yl)quinoline-3-carbonitrile]	3.1 fold	8 nM		
CN(c1ccc(-c2cc3cc(-c4cn(C)cn4)cnc3cc2O)nn1)C1CC(C)(C)NC(C)(C)C1 [Example 7-4, 6-(6-(methyl(2,2,6,6-tetramethylpiperidin-4-yl)amino)pyridazin-3-yl)-3-(1-methyl-1H-imidazol-4-yl)quinolin-7-ol]	2.2 fold	200 nM		
CN(c1ccc(-c2cc3cc(-n4ccnc4)cnc3cc2O)nn1)C1CC(C)(C)NC(C)(C)C1 [Example 7-5, 3-(1H-imidazol-1-yl)-6-(6-(methyl(2,2,6,6-tetramethylpiperidin-4-yl)amino)pyridazin-3-yl)quinolin-7-ol]	2.5 fold	50 nM		
CN(c1ccc(-c2cc3cc(O)cnc3cc2O)nn1)C1CC(C)(C)NC(C)(C)C1 [Example 7-6, 6-(6-(methyl(2,2,6,6-tetramethylpiperidin-4-yl)amino)pyridazin-3-yl)quinoline-3,7-diol]	2.9 fold	300 nM		
CCc1cnc2cc(O)c(-c3ccc(N(C)C4CC(C)(C)NC(C)(C)C4)nn3)cc2c1 [Example 8-1, 3-ethyl-6-(6-(methyl(2,2,6,6-tetramethylpiperidin-4-yl)amino)pyridazin-3-yl)quinolin-7-ol]	2.9 fold	86 nM		
CC(C)c1cnc2cc(O)c(-c3ccc(N(C)C4CC(C)(C)NC(C)(C)C4)nn3)cc2c1 [Example 8-2, 3-isopropyl-6-(6-(methyl(2,2,6,6-tetramethylpiperidin-4-yl)amino)pyridazin-3-yl)quinolin-7-ol]	2.50 fold	190 nM		
CN(c1ccc(-c2cc3ccc(=O)[nH]c3cc2O)nn1)C1CC(C)(C)NC(C)(C)C1 [Example 9-1, 7-hydroxy-6-(6-(methyl(2,2,6,6-tetramethylpiperidin-4-yl)amino)pyridazin-3-yl)quinolin-2(1H)-one]	2.25 fold	30 nM		
CN(c1ccc(-c2cc3ccc(=O)n(C)c3cc2O)nn1)C1CC(C)(C)NC(C)(C)C1 [Example 9-2, 7-hydroxy-1-methyl-6-(6-(methyl(2,2,6,6-tetramethylpiperidin-4-yl)amino)pyridazin-3-yl)quinolin-2(1H)-one]	2.25 fold	7 nM		
COc1cc(C)nc2cc(O)c(-c3ccc(N(C)C4CC(C)(C)NC(C)(C)C4)nn3)cc12 [Example 10-1, 4-methoxy-2-methyl-6-(6-(methyl(2,2,6,6-tetramethylpiperidin-4-yl)amino)pyridazin-3-yl)quinolin-7-ol]	3.3 fold	10 nM		
